Source: the supplement of paper PMC4862054

Tests used:
Details in all cases: incubation time: 72 h
CAL-148 [1] = experiment: normalised response (% of control), CellTox Green; higher = less cell death (100 = DMSO, 0 = benzethonium chloride kill control)
Outline: (§1)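 Breast cancer cell lines (20 µl suspension) were seeded into 384-well plates holding compound at 5 concentrations in 10-fold steps over a compound-specific 10,000-fold range, then incubated 72 h. CellTox Green fluorescence (485/520 nm) was read first, then CellTiter-Glo luminescence after 10 min at room temperature. Each plate was normalised to 0.1 % DMSO (100) and a positive kill control (0). Each value is the normalised signal at a single concentration of the series.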

MDA-MB-453 [2] = experiment: as above
Outline: as §1

MCF-10A [3] = experiment: as above
Outline: as §1

MFM-223 [4] = experiment: as above
Outline: as §1

HCC1143 [5] = experiment: as above
Outline: as §1

MDA-MB-231 [6] = experiment: as above
Outline: as §1

MDA-MB-436 [7] = experiment: as above
Outline: as §1

DU-4475 [8] = experiment: as above
Outline: as §1

CAL-51 [9] = experiment: as above
Outline: as §1

BT-549 [10] = experiment: as above
Outline: as §1

MDA-MB-468 [11] = experiment: as above
Outline: as §1

CAL-120 [12] = experiment: as above
Outline: as §1

HDQ-P1 [13] = experiment: as above
Outline: as §1

HCC1599 [14] = experiment: as above
Outline: as §1

Hs578T [15] = experiment: as above
Outline: as §1

BT-474 [16] = experiment: as above
Outline: as §1

CAL-85-1 [17] = experiment: as above
Outline: as §1

CAL-148 [18] = experiment: normalised response (% of control), CellTiter-Glo; higher = more viable cells (100 = DMSO, 0 = benzethonium chloride kill control)
Method: (§2)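 DSRT, 72 h incubation, CellTox Green / CellTiter-Glo readout. Signal is normalised to DMSO and benzethonium chloride controls. Value is the normalised response at dose 3.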

MDA-MB-453 [19] = experiment: as above
Method: as §2

SK-BR-3 = experiment: as above
Method: as §2

MCF-10A [20] = experiment: as above
Method: as §2

MFM-223 [21] = experiment: as above
Method: as §2

HCC1143 [22] = experiment: as above
Method: as §2

MDA-MB-231 [23] = experiment: as above
Method: as §2

MDA-MB-436 [24] = experiment: as above
Method: as §2

DU-4475 [25] = experiment: as above
Method: as §2

CAL-51 [26] = experiment: as above
Method: as §2

BT-549 [27] = experiment: as above
Method: as §2

MDA-MB-468 [28] = experiment: as above
Method: as §2

CAL-120 [29] = experiment: as above
Method: as §2

HDQ-P1 [30] = experiment: as above
Method: as §2

HCC1599 [31] = experiment: as above
Method: as §2

Hs578T [32] = experiment: as above
Method: as §2

BT-474 [33] = experiment: as above
Method: as §2

HCC1937 [34] = experiment: as above
Method: as §2

CAL-85-1 [35] = experiment: as above
Method: as §2

HCC1937 [36] = experiment: normalised response (% of control), CellTox Green; higher = less cell death (100 = DMSO, 0 = benzethonium chloride kill control)
Outline: as §1

| SMILES | normalised response (CAL-148 [1]) [%] | normalised response (MDA-MB-453 [2]) [%] | normalised response (MCF-10A [3]) [%] | normalised response (MFM-223 [4]) [%] | normalised response (HCC1143 [5]) [%] | normalised response (MDA-MB-231 [6]) [%] | normalised response (MDA-MB-436 [7]) [%] | normalised response (DU-4475 [8]) [%] | normalised response (CAL-51 [9]) [%] | normalised response (BT-549 [10]) [%] | normalised response (MDA-MB-468 [11]) [%] | normalised response (CAL-120 [12]) [%] | normalised response (HDQ-P1 [13]) [%] | normalised response (HCC1599 [14]) [%] | normalised response (Hs578T [15]) [%] | normalised response (BT-474 [16]) [%] | normalised response (CAL-85-1 [17]) [%] | normalised response (CAL-148 [18]) [%] | normalised response (MDA-MB-453 [19]) [%] | normalised response (SK-BR-3) [%] | normalised response (MCF-10A [20]) [%] | normalised response (MFM-223 [21]) [%] | normalised response (HCC1143 [22]) [%] | normalised response (MDA-MB-231 [23]) [%] | normalised response (MDA-MB-436 [24]) [%] | normalised response (DU-4475 [25]) [%] | normalised response (CAL-51 [26]) [%] | normalised response (BT-549 [27]) [%] | normalised response (MDA-MB-468 [28]) [%] | normalised response (CAL-120 [29]) [%] | normalised response (HDQ-P1 [30]) [%] | normalised response (HCC1599 [31]) [%] | normalised response (Hs578T [32]) [%] | normalised response (BT-474 [33]) [%] | normalised response (HCC1937 [34]) [%] | normalised response (CAL-85-1 [35]) [%] | normalised response (HCC1937 [36]) [%] |
| --- | --- | --- | --- | --- | --- | --- | --- | --- | --- | --- | --- | --- | --- | --- | --- | --- | --- | --- | --- | --- | --- | --- | --- | --- | --- | --- | --- | --- | --- | --- | --- | --- | --- | --- | --- | --- | --- |
| Cc1sc2c(c1C)C(c1ccc(Cl)cc1)=N[C@@H](CC(=O)OC(C)(C)C)c1nnc(C)n1-2 [(+)JQ1] (100 nM) | 98.3 | 108 | 111 | 103 | 111 | 96.2 | 68.7 | 101 | 101 | 95.7 | 131 | 82.9 | 96.3 | 105 | 104 | 79 | 83.9 | 117 | 94.6 | 92.8 | 84.6 | 95 | 99.5 | 94.8 | 102 | 93.5 | 106 | 76 | 89.3 | 97.9 | 89.5 | 97.3 | 73.4 | 86.2 | 85 | 88.8 | – |
| Oc1ncnc2[nH]ncc12 [Allopurinol] (100 nM) | 86.5 | 102 | 89.3 | 91.8 | 113 | 112 | 102 | 101 | 98.8 | 94.6 | 92.2 | 103 | 103 | 104 | 103 | 98.1 | 109 | 104 | 110 | 105 | 104 | 109 | 106 | 105 | 99.5 | 106 | 86.8 | 91.4 | 107 | 103 | 101 | 111 | 105 | 101 | 101 | 104 | – |
| CC1=C2C[C@H]3[C@@H](CC=C4C[C@@H](O)CC[C@@]43C)[C@@H]2CC[C@]12O[C@@H]1C[C@H](C)CN[C@H]1[C@H]2C [Cyclopamine] (100 nM) | 104 | 97.4 | 94.2 | 107 | 115 | 102 | 86 | 102 | 85.7 | 102 | 88.8 | 99.6 | 68.2 | 104 | 95.4 | 101 | 94.5 | 114 | 122 | 112 | 106 | 109 | 104 | 109 | 99.7 | 109 | 99.3 | 95 | 108 | 104 | 99.9 | 100 | 105 | 101 | 97.2 | 106 | – |
| CC(=O)N(O)CCCCCNC(=O)CCC(=O)N(O)CCCCCNC(=O)CCC(=O)N(O)CCCCCN [Deferoxamine] (100 nM) | 92.4 | 102 | 90.1 | 102 | 102 | 78.7 | 95.5 | 98.1 | 104 | 97.8 | 114 | 103 | 96.1 | 92.5 | 94.9 | 94.5 | 104 | 88.7 | 84.4 | 88.2 | 96.8 | 93.5 | 99.1 | 93.2 | 102 | 93.9 | 96.2 | 100 | 95.8 | 99.2 | 101 | 102 | 101 | 95 | 89.7 | 95 | – |
| C[C@]12CC[C@@H]3c4ccc(OC(=O)N(CCCl)CCCl)cc4CC[C@H]3[C@@H]1CC[C@@H]2O [Estramustine] (100 nM) | 102 | 103 | 83.8 | 99.3 | 84.8 | – | 83.2 | 96.8 | 81 | 103 | 97.9 | 100 | 89.7 | 91.3 | – | 95.8 | 95.6 | 76.8 | 83.1 | 85.3 | 88.2 | 91.4 | 100 | 95.4 | 98.4 | 93.3 | 86.7 | 104 | 95.2 | 101 | 102 | 103 | 93 | 98.1 | 95.2 | 94.6 | 70.5 |
| CC1(C)CNc2cc(NC(=O)c3cccnc3NCc3ccncc3)ccc21 [Motesanib] (100 nM) | 94.2 | 105 | 100 | 92.8 | 100 | 101 | 91.1 | 97.9 | 107 | 106 | 93 | 95.2 | 111 | 103 | – | 99 | 110 | 86.2 | 99.8 | 92.1 | 92.5 | 93.8 | 95.4 | 101 | 96.9 | 102 | 107 | 99.7 | 91.8 | 99.9 | 99.5 | 114 | 96.3 | 101 | 96.8 | 89.5 | 99.2 |
| CC(=O)c1c(C)c2cnc(Nc3ccc(N4CCNCC4)cn3)nc2n(C2CCCC2)c1=O [Palbociclib] (100 nM) | 103 | 107 | – | 101 | 55.5 | 103 | 77 | 98.8 | 110 | 103 | – | 98.7 | 101 | 95.2 | 104 | 99.6 | 102 | 85.7 | 105 | 86.3 | 85.8 | 79.7 | 96.5 | 95.9 | 96.4 | 98 | 72.8 | 97.9 | 85 | 86.4 | 103 | 94.4 | 103 | 85.7 | 95.7 | 97.3 | 82 |
| CC[C@@H]1C(=O)OC[C@@H]1Cc1cncn1C [Pilocarpine] (400 nM) | 97.1 | 93.6 | 98.6 | 99.6 | 104 | 106 | 70 | 95.8 | 91.1 | 93.4 | 73.4 | 98.8 | 91 | 99.5 | – | 98.4 | 110 | 86 | 96.1 | 89.7 | 101 | 101 | 98.7 | 94.1 | 88.3 | 97.7 | 63.4 | 102 | 95.3 | 96.6 | 98.3 | 85.9 | 97.8 | 94.5 | 96.7 | 97 | 70.4 |
| COc1cc(F)c(F)c(Nc2ccc(I)cc2F)c1NS(=O)(=O)C1(C[C@H](O)CO)CC1 [Refametinib] (100 nM) | 58.6 | 101 | 93.4 | 97.7 | 95.8 | – | – | 84 | 79.7 | 102 | – | 92.4 | 81.3 | 93.7 | 103 | 97.4 | 86.7 | 87.2 | 97.6 | 90.6 | 37.9 | 88.9 | 89.1 | 83.6 | 91.6 | 35.1 | 88.3 | 105 | 82.2 | 87.7 | 68.6 | 99.6 | 87.4 | 81 | 88 | 89.7 | 92.5 |
